From patent publication US20240109917A1 (ACTELION PHARMACEUTICALS LTD, priority 2020, published 2024)

How the values were obtained:
[1] = biological target: His6-TEV-PDGFRβ (557-1016) (Homo sapiens (Human), UniProt P09619); assay: PDGFRβ HTRF Assay; type: biochemical; conditions: read-out: PDGFR HTRF IC50
Procedure: Instrumentation: a. Compound liquid handling: LabCyte Echo; b. Reagent liquid handling: Thermo Scientific Multidrop Combi; c. BMG PHERAStar multilabel plate reader.
Protein Reagent: His6-TEV-PDGFRβ Protein Prep prepared at Accelagen.
(§1) II. Methods and Procedures
Assay buffer stock solution, contains 50 mM Hepes, 10 mM MgCl2, 1 mM EGTA, and 0.01% Brij-35, 0.01% ovalbumin, 2 mM DTT at pH 7.5, in molecular biology grade water. Store at room temperature.
DTT, 2 M in molecular biology grade water, store at −20° C. in aliquots.
Ovalbumin, 10% or 100 mg/mL, prepare fresh on experimental day.
PDGFRβ, 116 μM (PDGFRb_08 Prep 02), produced at Accelagen. Store at −80° C. in aliquots.
TK-biotin peptide, […] in molecular biology grade water, store at −20° C. in aliquots.
ATP, 100 mM in molecular biology grade water, store at −20° C. in aliquots.
HTRF KinEASE-TK kit: Allow the contents of the Cisbio kit to warm up to room temperature before use. This kit contains HTRF detection buffer, TK-Antibody labeled with Eu^3+-cryptate, TK-substrate biotin and Streptavidin-XL665.
TK Substrate-Biotin, reconstitute 500 μg lyopholized with 574 μL molecular biology grade water to prepare a 500 μM stock; After use, aliquot the rest and store at −20° C.
TK Antibody-Cryptate, reconstitute lyophilized with 1 mL of molecular biology grade water (100× solution) then add 99 mL detection buffer to prepare a ready to use TK-antibody-cryptate solution; the concentration of the TK-antibody-cryptate reagent is not known. After use, aliquot the rest and store at −20° C.
Streptavidin-XL665, reconstitute 3 mg lyophilized with 3 mL molecular biology grade water to prepare a 1 mg/mL or 16.67 μM stock; MW=60 kDa; After use, aliquot the rest and store at −20° C.
(§2) Freshly Prepared Solutions:
Assay buffer. Dilute 5× Kinase buffer 5-fold with molecular biology grade water and add DTT to 2 mM and ovalbumin to 0.1 mg/mL (or 0.01%).
2× protein solution. Make a working solution of […] PDGFRβ in assay buffer. Keep on ice until use to maintain enzyme stability.
2× substrate solution. Make a working solution of 1.6 mM ATP and 1 μM TK-substrate biotin peptide in assay buffer.
3× quench/detection solution. Make a working solution of 0.1875 μM SA-XL665 and the TK-antibody cryptate diluted by 12 of total quench/detection volume in assay buffer.
Keep final streptavidin/biotin ratio at 1 to 8.
Example of 3× quench/detection solution preparation: 8 mL total volume.
TK antibody-cryptate in detection buffer—4000 μL
The kinase reaction is stopped by the addition of the detection reagents which contain EDTA (detection step).
Assay in white ProxiPlate 384-well
Step 1. Dispensing inhibitors/DMSO and low control: Using the ECHO 555 acoustic dispenser, spot desired compound serial dilutions in DMSO, NEAT DMSO to represent the uninhibited enzyme control, and 10 μM final [imatinib] to the represent the 100% inhibited enzyme control
Step 2. PDGFRβ E+I pre-incubation: Add 2 μL 2× protein solution to columns 1-24 using the Multidrop Combi. Centrifuge at 1000 rpm for 1 min. Incubate 30 min at RT
Step 2. Enzymatic reaction: Add 2 μL substrate solution to columns 1-24 to initiate the reaction using the Multidrop Combi; cover/seal the assay plate to reduce evaporation. Centrifuge at 1000 rpm for 1 min. Incubate at room temperature for 3 hours.
Step 3. Quench/Detection: Add 2 μl 3× quench/detection solution to columns 1-24 using the Multidrop Combi; cover/seal the plate. Centrifuge 1 min 1000 rpm. Incubate at RT for 60 min. Read the plate in PHERAstar (or similar instrument) on HTRF setting at excitation 337 nm—dual emission—665/620 nm ratio.
(§3) III. Calculations and Formulas
HTRF ratio values calculated by the instrument (Ratio is acceptor counts/donor counts*10,000) is exported from the plate reader and used in data analysis. […] Assay statistics can include Robust Z′ and Signal to Background.
% Inhibition Calculation: Percent inhibition will be calculated for sample wells based on the equation: […]

PDGFRβ = PDGFRβ (Rattus norvegicus (Rat), UniProt Q05030); assay: PDGFRβ Cellular Assay (PDGFRb P-Y751 HTRF in A10 cells stimulated with PDGF-BB); type: cell-based; conditions: PDGFR Cellular IC50
Sequence of PDGFRβ (Q05030 32-1097): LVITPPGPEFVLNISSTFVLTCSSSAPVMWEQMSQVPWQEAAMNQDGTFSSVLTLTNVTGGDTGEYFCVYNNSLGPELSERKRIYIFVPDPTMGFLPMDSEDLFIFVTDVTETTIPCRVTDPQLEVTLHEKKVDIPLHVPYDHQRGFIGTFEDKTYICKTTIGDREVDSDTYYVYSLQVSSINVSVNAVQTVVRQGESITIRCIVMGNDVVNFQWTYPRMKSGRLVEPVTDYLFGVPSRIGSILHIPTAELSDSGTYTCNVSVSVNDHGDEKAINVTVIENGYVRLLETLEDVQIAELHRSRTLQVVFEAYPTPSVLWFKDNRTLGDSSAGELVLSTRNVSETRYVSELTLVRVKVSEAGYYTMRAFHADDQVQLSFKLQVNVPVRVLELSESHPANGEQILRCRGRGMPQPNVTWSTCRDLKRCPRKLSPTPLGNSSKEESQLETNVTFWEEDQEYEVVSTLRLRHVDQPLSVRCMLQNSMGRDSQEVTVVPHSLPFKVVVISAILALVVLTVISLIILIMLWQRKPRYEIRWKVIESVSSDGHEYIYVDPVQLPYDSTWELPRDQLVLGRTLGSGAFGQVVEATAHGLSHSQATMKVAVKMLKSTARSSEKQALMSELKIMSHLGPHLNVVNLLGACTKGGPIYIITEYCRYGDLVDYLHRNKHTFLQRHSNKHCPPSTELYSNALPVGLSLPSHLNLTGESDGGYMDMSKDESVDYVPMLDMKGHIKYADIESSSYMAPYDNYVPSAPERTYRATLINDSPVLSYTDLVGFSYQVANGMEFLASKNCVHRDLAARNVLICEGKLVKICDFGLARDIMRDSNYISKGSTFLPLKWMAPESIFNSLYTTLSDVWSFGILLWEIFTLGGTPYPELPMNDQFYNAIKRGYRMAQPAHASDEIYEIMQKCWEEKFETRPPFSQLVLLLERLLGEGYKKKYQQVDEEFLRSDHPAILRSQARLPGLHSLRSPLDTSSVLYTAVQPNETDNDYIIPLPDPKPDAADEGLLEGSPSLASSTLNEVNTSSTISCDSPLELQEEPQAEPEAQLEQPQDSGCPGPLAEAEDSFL
Procedure: as §1
Cell Culture and Preparation: Cells are cultured according to ATCC procedure (5) with the addition of the antibiotic penicillin-streptomycin. If working from frozen, cells should be thawed according to ATCC procedure. Depending on the cell density of frozen vial, cells will need time to recover from thaw. An 80% confluent T75 flask should be enough for one 384 well plate.
Stock Solutions: Rat PDGFBB. A 100 ug/mL stock is prepared by reconstituting 50 ug in 500 uL of 4 mM HCl and 0.1% BSA. It can be stored for a month at 4° C., or aliquoted out and frozen in the −20/−80° C. to avoid multiple free-thaw cycles.
as §2
1× Cisbio cell lysis buffer. The cell lysis buffer is diluted 4-fold with molecular grade water. The blocking agent is then diluted 25-fold in the diluted lysis buffer.
Antibody solutions. Equal amounts d2 and cryptate antibody are diluted 20-fold in detection buffer.
Rat PDGFBB. A working stock of 100 ng/mL is created from the stock solution in 10% FBS culture media.
Step 1: Plating Cells: Media from the A10 cell flask is aspirated. The cells are rinsed with PBS and then trypsinized to disperse the cell layer. The cells are then pelleted are resuspended to 1.25e5 cells/mL. […] Plates are covered and placed in the incubator (37° C. 5% CO2) overnight to allow cells to adhere.
Step 2: Compound Dispense: Approximately 18 hours after plating, dispense 40 nL compound onto cells using Echo. Column 12 is the neutral control DMSO, column 24 is the inhibitor control 10 mM Imatinib (10 uM final assay concentration). The plate is returned to the incubator for 3 hours.
After 10 minutes the media is removed by flicking the plate.
Step 4: Cell lysis and antibody addition: 20 uL lysis buffer per well is added to the plate via Tempest. 5 uL antibody solution is added per well via the Tempest. The plate is placed on the shaker at 230 rpm for 1 hour at room temperature.
Step 5: Detection: The plate is read using the HTRF module on the BMG Pherastar. Data is analyzed using Genedata Screener.
as §3
% Inhibition: % Inhibition=(NC−sample)/(NC−PC)*100 where NC is the mean of negative control (reactions without inhibitor), and PC is the mean of positive control (10 μM imatinib).
IC50 values are determined from a 4-parameter fit, using the following equation: Y=Bottom+(Top−Bottom)/(1+10((Log IC50−X)*Hill slope)), where X=log10 of the compound concentration; top can be defined by PC; bottom defined by NC.

VEGFR2, unphosphorylated = VEGFR2, unphosphorylated (Homo sapiens (Human), UniProt P35968); assay: VEGFR ADP GLO Assay; type: biochemical
Sequence of VEGFR2, unphosphorylated (P35968 20-1356): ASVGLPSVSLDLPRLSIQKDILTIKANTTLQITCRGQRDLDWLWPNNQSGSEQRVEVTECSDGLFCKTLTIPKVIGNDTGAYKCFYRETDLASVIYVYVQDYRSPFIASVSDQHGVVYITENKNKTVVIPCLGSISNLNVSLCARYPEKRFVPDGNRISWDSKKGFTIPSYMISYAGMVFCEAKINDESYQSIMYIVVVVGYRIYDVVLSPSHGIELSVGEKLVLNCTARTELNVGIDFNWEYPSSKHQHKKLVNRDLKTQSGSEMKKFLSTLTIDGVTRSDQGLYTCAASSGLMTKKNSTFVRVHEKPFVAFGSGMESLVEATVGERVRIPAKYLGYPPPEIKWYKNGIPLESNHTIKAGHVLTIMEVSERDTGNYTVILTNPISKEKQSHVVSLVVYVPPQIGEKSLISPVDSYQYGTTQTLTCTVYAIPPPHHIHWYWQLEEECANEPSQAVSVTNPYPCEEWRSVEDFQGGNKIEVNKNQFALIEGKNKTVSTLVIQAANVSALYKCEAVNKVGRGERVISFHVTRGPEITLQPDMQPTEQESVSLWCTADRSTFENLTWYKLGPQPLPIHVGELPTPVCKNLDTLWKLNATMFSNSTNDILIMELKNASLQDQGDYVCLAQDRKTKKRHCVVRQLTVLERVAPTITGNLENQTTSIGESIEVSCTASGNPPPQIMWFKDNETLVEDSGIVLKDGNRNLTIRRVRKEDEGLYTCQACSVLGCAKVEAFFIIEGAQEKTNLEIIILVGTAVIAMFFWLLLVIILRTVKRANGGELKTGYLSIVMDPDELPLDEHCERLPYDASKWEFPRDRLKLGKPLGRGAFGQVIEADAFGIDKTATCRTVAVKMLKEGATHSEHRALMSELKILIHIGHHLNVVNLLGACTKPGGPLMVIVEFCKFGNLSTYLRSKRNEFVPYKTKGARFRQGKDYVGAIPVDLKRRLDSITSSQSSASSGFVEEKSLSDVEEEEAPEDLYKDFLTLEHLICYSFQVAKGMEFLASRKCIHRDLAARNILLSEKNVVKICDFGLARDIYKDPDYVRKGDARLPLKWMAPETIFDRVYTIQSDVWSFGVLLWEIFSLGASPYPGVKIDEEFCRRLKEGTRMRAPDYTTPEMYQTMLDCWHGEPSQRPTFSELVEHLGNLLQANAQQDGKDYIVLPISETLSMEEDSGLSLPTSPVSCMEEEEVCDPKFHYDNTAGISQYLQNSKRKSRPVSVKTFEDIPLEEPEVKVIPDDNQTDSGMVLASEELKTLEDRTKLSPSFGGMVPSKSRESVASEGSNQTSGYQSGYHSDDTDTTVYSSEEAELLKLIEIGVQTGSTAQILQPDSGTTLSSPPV
Procedure: as §1
Assay buffer stock contains 50 mM HEPES pH7.5, 10 mM MgCl2, 0.01% Brij-35, and 1 mM EGTA.
Unphosphorylated VEGFR2. […] Store at −80° C. in aliquots.
Sonicate 10 mg/ml Srctide solution for 10 minutes and then vacuum filter.
Freshly Prepared Solutions
2× kinase solution. Make a working solution of 10 nM unphosphorylated VEGFR2 in Assay buffer. Vacuum filter 2× kinase solution prior to running assay. Keep on ice until use.
2× substrate/ATP solution. Make a working solution of 2 mg/mL srctide and 2.4 mM ATP in Assay buffer. Keep on ice until use.
Step 1. Dispensing inhibitors/controls: Using Echo, dispense 10 nL/well compound serial dilutions in DMSO to columns 1-22 (in 384-well plates) or columns 1-44 (in 1536-well plates). Dilution series=11 pt, 3-fold dilutions. The top compound concentration in the source plate is 4 mM. The top compound concentration in the assay plate is 10 uM. Using Echo, dispense 10 nl/well DMSO to column 23 (in 384-well plates) or columns 45-47 (in 1536-well plates). […] These wells will serve as positive control wells.
Step 2. Pre-incubation of inhibitors with kinase: Add 2 μL/well 2× kinase solution. Centrifuge at 1000 rpm for 1 min. Incubate at room temperature for 30 min.
Step 3. Kinase cascade reaction: Add 2 μL/well 2× substrate/ATP solution to initiate kinase reactions. Centrifuge at 1000 rpm for 1 min. Incubate at room temperature for 180 min.
Final concentrations of components in the assay:
Step 4. Quench: Add 2 uL/well ADP Glo Reagent+0.05% CHAPS. Centrifuge at 1000 rpm for 1 min; Incubate at room temperature for one hour.
Step 5. Detection: Add 2 uL/well Kinase Detection Reagent+0.05% CHAPS. Centrifuge at 1000 rpm for 1 min; Incubate at room temperature for 1 hour; Read Luminescence on a plate reader.
as §3
IC50 values are determined from a 4-parameter fit, using the following equation: Y=Bottom+(Top−Bottom)/(1+10^(Log IC50-X)*Hill slope) where X=log10 of the compound concentration; top can be defined by PC; bottom defined by NC.

Sequence of His6-TEV-PDGFRβ (557-1016) (P09619 557-1016): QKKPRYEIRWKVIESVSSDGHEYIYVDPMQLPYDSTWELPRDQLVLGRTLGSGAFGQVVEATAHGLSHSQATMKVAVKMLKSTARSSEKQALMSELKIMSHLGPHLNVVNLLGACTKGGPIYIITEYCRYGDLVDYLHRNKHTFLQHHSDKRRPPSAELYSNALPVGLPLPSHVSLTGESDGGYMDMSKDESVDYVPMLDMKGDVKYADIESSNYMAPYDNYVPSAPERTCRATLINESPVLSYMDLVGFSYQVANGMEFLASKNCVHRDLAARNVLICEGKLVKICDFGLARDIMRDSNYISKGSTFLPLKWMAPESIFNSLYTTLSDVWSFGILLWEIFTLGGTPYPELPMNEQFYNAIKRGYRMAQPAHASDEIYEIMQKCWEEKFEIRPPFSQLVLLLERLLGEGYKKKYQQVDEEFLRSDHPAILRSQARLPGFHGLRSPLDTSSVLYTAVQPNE

Structure (SMILES)	IC50 [1]	IC50 (PDGFRβ)	IC50 (VEGFR2, unphosphorylated)
Cc1ncc(C(=O)NCCN2CC3CCC2CC3)cc1NC(=O)c1cnn2cc(-c3cnn(C)c3)sc12 [Example 1, N-(5-((2-(2-azabicyclo[2.2.2]octan-2-yl)ethyl)carb-amoyl)-2-methylpyridin-3-yl)-2-(1-methyl-1H-pyrazol-4-yl)pyrazolo[5,1-b]thiazole-7-carboxamide]	0.2 nM	33.8 nM	> 7500 nM
Cc1cc(C(=O)NCCN2CCCC23CCCC3)sc1NC(=O)c1cnn2cc(-c3cnn(C)c3)sc12 [Example 196, N-(5-((2-(1-azaspiro[4.4]nonan-1-yl)ethyl)carbamoyl)-3-methylthiophen-2-yl)-2-(1-methyl-1H-pyrazol-4-yl)pyrazolo[5,1-b]thiazole-7-carboxamide]	1.4 nM	85.8 nM	> 7500 nM
Cc1ncc(NC(=O)CN2C[C@H](C)O[C@@H](C)C2)cc1NC(=O)c1cnn2cc(-c3ccc[nH]c3=O)sc12 (relative stereo) [Example 370, N-(5-(2-(trans-2,6-dimethylmorpholino)acetamido)-2-methylpyridin-3-yl)-2-(2-oxo-1,2-dihydropyridin-3-yl)pyrazolo[5,1-b]thiazole-7-carboxamide]	1 nM	544 nM	> 7500 nM
Cc1ncc(NC(=O)CN2CC(C)(C)C2)cc1NC(=O)c1cnn2cc(-c3c(C)noc3C)sc12 [Example 364, N-(5-(2-(3,3-dimethylazetidin-1-yl)acetamido)-2-methylpyridin-3-yl)-2-(3,5-dimethylisoxazol-4-yl)pyrazolo[5,1-b]thiazole-7-carboxamide]	0.8 nM	10.3 nM	> 7500 nM
